Results published in patent US11730770B2, “Methods for making and using sinoatrial node-like pacemaker cardiomyocytes and ventricular-like cardiomyocytes” (UNIVERSITY HEALTH NETWORK, priority 2015, dated 2023).

What was measured:
Type in all cases: cell-based, human
[1] = system: pacemaker funny current (If); experiment: Patch clamp, pacemaker funny current density; details: 2 mM Cesium (Cs+) vs Tyrode's solution
Experimental: FIG. 9. A, Current-voltage relationship for pacemaker funny current density (If) in SANLCM and VLCM. Inset: voltage protocol, from a holding potential of −40 mV currents were elicited by 3 s voltage steps of −10 mV down to −120 mV. Current densities were measured by subtraction of the instantaneous current (t=0) from the current at the end of the 3 sec voltage step. B,C Original pacemaker funny current traces at different membrane potentials in Tyrode's solution (B) and blocked by the application of 2 mM Cesium (Cs^+) (C). Inset: voltage protocol, from a holding potential of −40 mV currents were elicited by 3 s voltage steps of −10 mV down to −120 mV. […] Current densities were measured as peak inward currents. […]
Action potentials and membrane currents were measured with standard current- and voltage-clamp techniques using axopatch amplifier. […] Spontaneous action potentials, funny current (If) and inward rectifier potassium currents ([…]) were recorded at 37° C. using the perforated patch method (nystatin)^14 with the following bath solution (mM): NaCl 124. […] Sodium currents (IN) were recorded at 25° C. using the whole cell ruptured patch method in calcium free bath solution containing low Na^+ to reduce current amplitude for better voltage control (mM): NaCl 30, TEA-Cl 115, CaCb20.01, MgCl2 1, and glucose 5, Hepes 10 (pH 7.4, adjusted with NaOH). […]

[2] = system: HES3 NKX2-5:GFP reporter line; experiment: Flow cytometry of day 20 differentiation cultures for NKX2-5 and cTNT
Experimental: Human pluripotent stem cell lines (Hes3 NKX2-5:GFP)^10 H7 (HESC line approved by NIH registration number 0061^32 and MSC-IPS1^11 were cultured as described^12. For differentiation into the cardiac lineage the established protocol was used with the following modifications (FIG. 1A). 80% confluent hPSCs cultures were dissociated into single cells, suspended in StemPro-34 Media containing 1 ng/ml BMP4 and 10 μM ROCK inhibitor and incubated for 18 h on an orbital shaker to generate embryoid bodies (EBs). The next day (day 1 of differentiation) the EBs were transferred to mesoderm induction media: StemPro-34 containing 10 ng/ml BMP4, 6 ng/ml ActivinA, 5 ng/ml bFGF. At day 3 of differentiation the EBs were washed once using IMDM and suspended in cardiac induction media: StemPro-34 containing 0.5 μM IWP2, 10 ng/ml VEGF, and optionally 5.4 μM SB-431542 (SB, Activin/Nodal/TGFβ inhibitor). At day 5 of differentiation EBs were switched to basic media: Stempro containing 5 ng/ml VEGF. Media was supplemented with VEGF until day 12 of differentiation and changed every 4 days. All cytokines were purchased from R&D systems if not indicated otherwise. EBs were cultured under low oxygen conditions 5% CO2, 5% O2, 90% N2 until day 12 and at 5% CO2, normal air conditions for the rest of the culture period.
EBs were dissociated into single cells at the mesoderm stage (day 3 of differentiation) using TrypLE (Life Technologies) with the rational to ensure efficient cytokine supply to each cell. Cells were placed into 96 well low cluster plates at 80,000 cells/well with the indicated cytokines and 5 μM ROCK inhibitor for re-aggregation into EBs (FIG. 2A). At day 5 of differentiation EBs were transferred to 24 well low cluster plates and continued to be cultured in basic media as described above.
For efficient specification of SANLCM pacemaker, mesoderm was induced with the 3B/2A condition (3 ng/ml BMP4, 2 ng/ml ACTA) at day 1 of differentiation. At day 3 EBs were dissociated as described above and treated with 2.5 ng/ml BMP4 and 0.5 μM RA in addition to standard cardiac induction media.
For the generation of SANLCM cultures free of NKX2-5′ cardiomyocytes mesoderm was induced with the 3B/2A condition (3 ng/ml BMP4, 2 ng/ml ACTA) at day 1 of differentiation. For this protocol EBs were kept intact and treated at day 3 with 2.5 ng/ml BMP4, 0.5 μM RA and 960 nM FGF inhibitor (PD 173074, Tocris) at day 3 or day 4 in addition to standard cardiac induction media.
(§1) For the dissociation of day 3-day 12 EBs TrypLE was used. Day 12-30 EBs were incubated in HANKs buffer containing 1 mg/ml Collagenes type 2 (Worthington) with gentle shaking over night at room temperature, prior to TypLE dissociation. Cells were stained at a concentration of 5×10^6 cells/ml with anti-PDGFRα-PE (1:20) anti-KDR-APC (1:10), (R&D Systems), anti-SIRPA-PeCy (clone SE5A5, 1:1000, Biolegend), anti-CD90-APC (BD), anti-cardiac isoform of cTNT (clone 13-11; 1:2000, Thermo Fischer), rabbit anti-human NKX2-5 (1:800, Cell Signaling Technology), goat anti-mouse IgG APC (1:250, BD), goat anti-mouse IgG PE (1:200, Jackson ImmunoResearch), donkey anti-rabbit IgG A647 Life Technologies). For cell-surface markers staining was carried out in PBS containing 5% FCS. For intra-cellular staining cells were fixed for 10 min at 4° C. with 4% PFA and stained in PBS containing 5% FCS and 0.5% saponin (cTNT) or 0.3% TritonX (NKX2-5). Stained cells were analyzed using the LSR II Flow cytometer (BD). For cell sorting the cells were kept in IMDM containing 5% FCS and sorted at a concentration of 10^6 cell/ml using MoFlo (BD) and Influx (BD) sorter. For sorting of PFA-fixed cells for subsequent RNA isolation the staining buffers and PBS for cell collection were supplemented with 5 mM DTT and 100 U/ml RNaseOUT (Life Technologies). All buffer components were RNAse free and samples were strictly kept on ice and sorted within 3 h from PFA-fixation. Data were analyzed using FlowJo software (Tree Star).

[3] = system: HES-2 embryonic stem cell line; experiment: Flow cytometry of day 20 HES2 cultures, intracellular NKX2-5 and cTNT staining
Experimental: For the generation of SANLCM cultures free of NKX2-5′ cardiomyocytes mesoderm was induced with the 3B/2A condition (3 ng/ml BMP4, 2 ng/ml ACTA) at day 1 of differentiation. […]
as §1, with “For sorting of PFA-fixed cells for subsequent RNA isolation the staining buffers and PBS for cell collection were supplemented with 5 mM DTT and 100 U/ml RNaseOUT (Life Technologies). All buffer components were RNAse free and samples were strictly kept on ice and sorted within 3 h from PFA-fixation.” left out, “Star). […]” for “Star).”

TBX18 = experiment: Quantification of TBX18+ cells from immunostaining; details: BMP4 2.5 ng/ml day 3-5
Experimental: Cells were fixed with 4% PFA for 10 min at 4° C. and permeabilized using 0.3% Triton X, 200 mM Glycerin for 20 min at RT. Samples were blocked for 30 min at room temperature in blocking buffer (BB): 10% donkey serum, 2% BSA, 0.1% Triton X. The following primary antibodies were incubated in BB over night at 4° C.: anti-cardiac isoform of cTNT (clone 13-11; 1:100, Thermo Fischer), rabbit anti-human MLC2v (1:100), rabbit anti-human SHOX2 (1:200), (Abcam), rabbit anti-human TBX3 (1:100), goat anti-human Tbx18 (1:50), (Santa Cruz). Respective secondary antibodies were incubated for 30 min at RT: donkey anti-mouse IgG A647 (1:400), donkey anti-rabbit IgG A467 (1:400), (Life Technologies), goat anti-mouse IgG Cy3 (1:400), donkey anti-rabbit IgG Cy3 (1:800), donkey anti-goat IgG Cy3 (1:800), (Jackson ImmunoResearch). DAPI was used to counterstain cell nuclei and slides were mounted using Fluorescent Mounting Medium (Dako). The Olympus FluoView 1000 Laser Scanning Confocal Microscope and the FV10-ASW software were used for imaging.
For the quantification of DAPI and TBX18 positive cell nuclei the IMAGE J software plugin ICTN was used. For each condition three random taken pictures (FIG. 3F) of three independent experiments were analyzed.

[4] = system: SAN pacemaker marker, ventricular marker and cardiac ion channels; experiment: Q-PCR analysis of marker gene expression; details: BMP4 day 3-5, 2.5 ng/ml vs untreated control, day 4 to 12
Experimental: Total RNA was isolated using the RNAqueous-micro Kit (Ambion) followed by a DNase digestion step (Ambion). For RNA isolation from PFA-fixed cells the RecoverAll Kit (Ambion) was used. 500 ng to 1 μg of RNA was reverse transcribed into cDNA using random hexamers and Oligo(dT) primers with Superscript III Reverse Transcriptase (life technologies). QPCRs were performed on the EP RealPlex MasterCycler (Eppendorf) using the QuntiFast SYBR Green PCR Kit (Qiagen) according to the manufacturer's instructions. A 10-fold dilution series of human genomic DNA standards ranging from 25 ng/μl to […] was used to evaluate the efficiency of the PCR and calculate the copy number of each gene relative to the house keeping gene TBP as described previously^13. Human fetal heart tissue gestation stage 17 was purchased from Novogenix Laboratories. After dissecting ventricular, sinoatrial node and atrioventricular node tissue RNA was isolated using the Trizol method (Life Technologies) and treated with DNase (Ambion).

For `[Cs]` [Cesium], the “effect on pacemaker funny current traces” value [1] was “blocked”.
`CCN(CC)CCCCNc1ncc2cc(-c3cc(OC)cc(OC)c3)c(NC(=O)NC(C)(C)C)nc2n1` [PD 173074] was tested, and the “NKX2-5+ cardiomyocytes in day 20 cultures” value ([2]; BMP+RA plus FGF inhibitor 240-960 nM) was 51%, the “NKX2-5-cTNT+ SANLCM in day 20 cultures” value ([2]; BMP+RA plus FGF inhibitor from day 4-6 (480 nM)) was 48±3% and the “block in development of NKX2-5+ cardiomyocytes” value ([2]; FGF inhibitor applied from day 5 onwards) was “no effect”. The “NKX2-5+ myocytes in day 20 cultures” value ([3]; 240 nM FGFi day 3-5, vs 43% at endogenous bFGF levels) was 5% and the “NKX2-5-cTNT+ SANLCMs in day 20 cultures” value ([3]; BMP 2.5 ng/ml, RA 0.5 μM, 240 nM FGFi day 3-5) was “up to 36%”.
`CC1=C(/C=C/C(C)=C/C=C/C(C)=C/C(=O)O)C(C)(C)CCC1` [RA, retinoic acid] was tested, and the “generation of total cardiomyocytes and SANLCM frequency” value ([2]; RA 500 nM added at later times (days 3 to 12)) was “no effect”.
For BMP4: Bone Morphogenetic Protein 4, the “number of TBX18+ cells at day 6” value (TBX18) was 38±2%, the TBX18 expression [4] was “significantly up-regulated” and the “proportion of SANLCMs” value ([2]; BMP4 1.25-5 ng/ml day 3-5, mesoderm induced with 3B/2A) was 35±1%. The “proportion of SANLCMs” value ([2]; BMP4 1.25-5 ng/ml day 3-5, mesoderm induced with 5B/4A) was 21±1%, the “proportion of SANLCMs” value ([2]; BMP4 1.25-5 ng/ml day 3-5, mesoderm induced with 10B/6A) was 15±2% and the total cardiomyocytes ([2]; high levels of BMP4 (10-20 ng/ml) between day 3-5) was “significant reduction”.
With bFGF: fibroblast growth factor FGF2 the “NKX2-5-cTNT+ SANLCM population in day 20 cultures” value ([2]; BMP+RA plus bFGF (20 ng/ml, day 4-6)) was 12±1%.
